Experimental data from patent US20240409585A1, “MACROCYCLIC IMMUNOMODULATORS” (priority 2021, published 2024).
Bridge positions count the residues as written; N and C are the ends. Square brackets hold non-standard residues; d marks the D form. Peptide text beside a SMILES is read from it. * marks the point of attachment. ξ: configuration not given here. Ala(morpholin-4-yl) = N[C@@H](CN1CCOCC1)C(=O)O; Phe(4-COOH) = N[C@@H](Cc1ccc(C(=O)O)cc1)C(=O)O; Bip = N[C@@H](Cc1ccc(-c2ccccc2)cc1)C(=O)O; Lys(Me3) = C[N+](C)(C)CCCC[C@H](N)C(=O)O; Phe(3-Me) = Cc1cccc(C[C@H](N)C(=O)O)c1; Phe(2-F) = N[C@@H](Cc1ccccc1F)C(=O)O; Val(3-OH) = CC(C)(O)[C@H](N)C(=O)O; 4Pal = N[C@@H](Cc1ccncc1)C(=O)O; 3Thi = N[C@@H](Cc1ccsc1)C(=O)O; Cha = N[C@@H](CC1CCCCC1)C(=O)O; Cit = NC(=O)NCCC[C@H](N)C(=O)O; Ile(3ξ) = CCC(C)[C@H](N)C(=O)O; dPhg = N[C@@H](C(=O)O)c1ccccc1; Thr(3ξ) = CC(O)[C@H](N)C(=O)O; Carboxymethyl = O=C(O)C*; NMeA = CN[C@@H](C)C(=O)O; Orn = NCCC[C@H](N)C(=O)O; Dab = NCC[C@H](N)C(=O)O; Dap = NC[C@H](N)C(=O)O; ξC = NC(CS)C(=O)O

Molecular target: T1, PE-labeled human PD-L1-Ig binding to Jurkat cell line over-expressing human PD-1 (Jurkat-PD-1) (Homo sapiens, UniProt Q15116)
T1 construct: expressed in transfected cells; host or cells: Jurkat
T1 sequence (Q15116 25-288): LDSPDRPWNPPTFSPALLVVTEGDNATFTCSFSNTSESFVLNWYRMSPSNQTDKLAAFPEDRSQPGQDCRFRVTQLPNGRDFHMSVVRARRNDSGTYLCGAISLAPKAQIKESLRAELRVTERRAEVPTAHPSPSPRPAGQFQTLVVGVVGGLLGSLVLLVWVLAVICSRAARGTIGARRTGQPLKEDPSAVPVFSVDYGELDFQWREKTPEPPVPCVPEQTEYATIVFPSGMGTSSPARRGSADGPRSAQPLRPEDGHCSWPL
Experiment: Jurkat-PD-1 Cell Binding High-Content Screening Assay (CBA): Method 1
Details: Jurkat-hPD-1 cells, PE-labeled PD-L1-Ig 20 nM final; read-out: Jurkat HPDL1 PD1 IC50 (uM) (Method 1)

Row | SMILES | IC50 [µM]
1 | Cc1cccc(C[C@@H]2NC(=O)[C@H](CC(=O)O)NC(=O)[C@H](Cc3ccc(OCC(=O)O)cc3)NC(=O)[C@H](CN3CCOCC3)NC(=O)CSC[C@@H](C(=O)N[C@@H](CCN)C(N)=O)NC(=O)[C@H](CCCN)NC(=O)[C@H](C(C)C)NC(=O)[C@H](Cc3ccccc3F)NC(=O)[C@H](CCN)NC(=O)[C@@H](CC(C)C)NC(=O)[C@H](C)N(C)C(=O)[C@H](CCC(N)=O)NC(=O)[C@H](Cc3ccc(-c4ccccc4)cc3)NC(=O)[C@H](Cc3ccc(C(=O)O)cc3)NC2=O)c1 [Example 2296] ({CH2CO}-[Ala(morpholin-4-yl)]Y(Carboxymethyl)D[Phe(3-Me)][Phe(4-COOH)][Bip]Q[NMeA][dL][Dab][Phe(2-F)]V[Orn]C[Dab]-NH2; thioether N-14) | 0.44
2 | CC(C)C[C@@H]1NC(=O)[C@H](CCCN)NC(=O)[C@@H](CC(C)C)NC(=O)[C@H](C)N(C)C(=O)[C@H](CCCNC(=N)N)NC(=O)[C@H](Cc2ccc(-c3ccccc3)cc2)NC(=O)[C@H](C(C)C)NC(=O)[C@H](Cc2c[nH]c3ccccc23)NC(=O)[C@H](CC(=O)O)NC(=O)[C@H](Cc2ccc(OCC(=O)O)cc2)NC(=O)[C@H](CC(N)=O)NC(=O)CSC[C@@H](C(=O)N[C@@H](C)C(N)=O)NC(=O)[C@H]([C@@H](C)O)NC(=O)[C@H](C(C)C)NC1=O [Compound 1152] ({CH2CO}-NY(Carboxymethyl)DWV[Bip]R[NMeA][dL][Orn]LVTCA-NH2; thioether N-14) | 0.08
3 | CC(C)C[C@@H]1NC(=O)[C@H](CCN)NC(=O)[C@@H](CC(C)C)NC(=O)[C@H](C)N(C)C(=O)[C@H](CCCNC(=N)N)NC(=O)[C@H](Cc2ccc(-c3ccccc3)cc2)NC(=O)[C@H](C(C)C)NC(=O)[C@H](Cc2c[nH]c3ccccc23)NC(=O)[C@H](CC(=O)O)NC(=O)[C@H](Cc2ccc(O)cc2)NC(=O)[C@H](Cc2ccccc2)NC(=O)CSC[C@@H](C(=O)N[C@@H](CCC(=O)O)C(N)=O)NC(=O)[C@H]([C@@H](C)O)NC(=O)[C@H](C(C)C)NC1=O [Compound 1175] ({CH2CO}-FYDWV[Bip]R[NMeA][dL][Dab]LVTCE-NH2; thioether N-14) | 0.12
4 | CC(=O)NCC[C@H](NC(=O)[C@@H]1CSCC(=O)N[C@@H](C(C)O)C(=O)N[C@@H](Cc2ccc(OCC(=O)O)cc2)C(=O)N[C@@H](CC(=O)O)C(=O)N[C@@H](Cc2cccc(C)c2)C(=O)N[C@@H](Cc2ccc(C(=O)O)cc2)C(=O)N[C@@H](Cc2ccc(-c3ccccc3)cc2)C(=O)N[C@@H](Cc2ccc(OCC(=O)O)cc2)C(=O)N(C)[C@@H](C)C(=O)N[C@H](CC(C)C)C(=O)N[C@@H](CCN)C(=O)N[C@@H](CC2CCCCC2)C(=O)N[C@@H](C(C)(C)O)C(=O)N[C@@H](Cc2cnc[nH]2)C(=O)N1)C(N)=O (stereo partly drawn) [Compound 2161] ({CH2CO}-[Thr(3ξ)]Y(Carboxymethyl)D[Phe(3-Me)][Phe(4-COOH)][Bip]Y(Carboxymethyl)[NMeA][dL][Dab][Cha][Val(3-OH)]HC[Dab](Ac)-NH2; thioether N-14) | 0.04
5 | CC(C)C[C@@H]1NC(=O)[C@H](CCCN)NC(=O)[C@@H](CC(C)C)NC(=O)[C@H](C)N(C)C(=O)[C@H](CCCN)NC(=O)[C@H](Cc2ccc(-c3ccccc3)cc2)NC(=O)[C@H](C(C)C)NC(=O)[C@H](Cc2c[nH]c3ccccc23)NC(=O)[C@H](CC(=O)O)NC(=O)[C@H](Cc2ccc(O)cc2)NC(=O)[C@H](CC(N)=O)NC(=O)CSC[C@@H](C(=O)N[C@@H](C)C(N)=O)NC(=O)[C@H](CO)NC(=O)[C@H](C(C)C)NC1=O [Compound 1251] ({CH2CO}-NYDWV[Bip][Orn][NMeA][dL][Orn]LVSCA-NH2; thioether N-14) | 0.04
6 | CCC(C)[C@@H]1NC(=O)[C@H](Cc2ccc(-c3ccccc3)cc2)NC(=O)[C@H](C(C)C)NC(=O)[C@H](Cc2c[nH]c3ccccc23)NC(=O)[C@H](CC(=O)O)NC(=O)[C@H](Cc2ccc(O)cc2)NC(=O)[C@H](Cc2ccncc2)NC(=O)CSC[C@@H](C(=O)N[C@@H](CN)C(N)=O)NC(=O)[C@H](C(C)O)NC(=O)[C@H](C(C)C)NC(=O)[C@H](CC2CCCCC2)NC(=O)[C@H](CC(N)=O)NC(=O)[C@@H](CC(C)C)NC(=O)[C@H](C)N(C)C1=O (stereo partly drawn) [Compound 2157] ({CH2CO}-[4Pal]YDWV[Bip][Ile(3ξ)][NMeA][dL]N[Cha]V[Thr(3ξ)]C[Dap]-NH2; thioether N-14) | 0.04
7 | Cc1cccc(C[C@@H]2NC(=O)[C@H](CC(=O)O)NC(=O)[C@H](Cc3ccc(OCC(=O)O)cc3)NC(=O)[C@H](Cc3ccsc3)NC(=O)CSC[C@@H](C(=O)N[C@@H](CCN)C(N)=O)NC(=O)[C@H](C(C)O)NC(=O)[C@H](C(C)C)NC(=O)[C@H](CC3CCCCC3)NC(=O)[C@H](CCN)NC(=O)[C@@H](CC(C)C)NC(=O)[C@H](C)N(C)C(=O)[C@H](Cc3ccc(OCC(=O)O)cc3)NC(=O)[C@H](Cc3ccc(-c4ccccc4)cc3)NC(=O)[C@H](Cc3ccc(C(=O)O)cc3)NC2=O)c1 (stereo partly drawn) [Compound 2128] ({CH2CO}-[3Thi]Y(Carboxymethyl)D[Phe(3-Me)][Phe(4-COOH)][Bip]Y(Carboxymethyl)[NMeA][dL][Dab][Cha]V[Thr(3ξ)]C[Dab]-NH2; thioether N-14) | 0.01
8 | CC(C)C[C@@H]1NC(=O)[C@H](CCN)NC(=O)[C@@H](CC(C)C)NC(=O)[C@H](C)N(C)C(=O)[C@H](C(C)C)NC(=O)[C@H](Cc2ccc(-c3ccccc3)cc2)NC(=O)[C@H](C(C)C)NC(=O)[C@H](Cc2c[nH]c3ccccc23)NC(=O)[C@H](CC(=O)O)NC(=O)[C@H](Cc2ccc(OCC(=O)O)cc2)NC(=O)[C@H](Cc2ccc(OCC(=O)O)cc2)NC(=O)CSC[C@@H](C(=O)N[C@@H](C)C(N)=O)NC(=O)[C@H]([C@@H](C)O)NC(=O)[C@H](C(C)C)NC1=O [Compound 1567] ({CH2CO}-Y(Carboxymethyl)Y(Carboxymethyl)DWV[Bip]V[NMeA][dL][Dab]LVTCA-NH2; thioether N-14) | 0.02
9 | CC(C)C[C@@H]1NC(=O)[C@H](CCCNC(=N)N)NC(=O)[C@@H](CC(C)C)NC(=O)[C@H](C)N(C)C(=O)[C@H](CCCNC(=N)N)NC(=O)[C@H](Cc2ccc(-c3ccccc3)cc2)NC(=O)[C@H](C(C)C)NC(=O)[C@H](Cc2c[nH]c3ccccc23)NC(=O)[C@H](CC(=O)O)NC(=O)[C@H](Cc2ccc(O)cc2)NC(=O)[C@H](CCC(N)=O)NC(=O)CSC[C@@H](C(=O)N[C@@H](C)C(N)=O)NC(=O)[C@H](CO)NC(=O)[C@H](C(C)C)NC1=O [Compound 1029] ({CH2CO}-QYDWV[Bip]R[NMeA][dL]RLVSCA-NH2; thioether N-14) | 0.04
10 | CC(C)C[C@@H]1NC(=O)[C@H](CCN)NC(=O)[C@@H](CC(C)C)NC(=O)[C@H](C)N(C)C(=O)[C@H](CCCNC(N)=O)NC(=O)[C@H](Cc2ccc(-c3ccccc3)cc2)NC(=O)[C@H](C(C)C)NC(=O)[C@H](Cc2c[nH]c3ccccc23)NC(=O)[C@H](CC(=O)O)NC(=O)[C@H](Cc2ccc(C(=O)O)cc2)NC(=O)[C@H](Cc2ccncc2)NC(=O)CSC[C@@H](C(=O)N[C@@H](C)C(N)=O)NC(=O)[C@H]([C@@H](C)O)NC(=O)[C@H](C(C)C)NC1=O [Compound 1328] ({CH2CO}-[4Pal][Phe(4-COOH)]DWV[Bip][Cit][NMeA][dL][Dab]LVTCA-NH2; thioether N-14) | 0.01
11 | CCC(C)[C@@H]1NC(=O)[C@H](Cc2ccc(-c3ccccc3)cc2)NC(=O)[C@H](C(C)C)NC(=O)[C@H](Cc2c[nH]c3ccccc23)NC(=O)[C@H](CC(=O)O)NC(=O)[C@H](Cc2ccc(O)cc2)NC(=O)[C@H](CCCC[N+](C)(C)C)NC(=O)CSCC(C(=O)NCC(=O)O)NC(=O)[C@H](C(C)O)NC(=O)[C@H](C(C)C)NC(=O)[C@H](CC2CCCCC2)NC(=O)[C@H](CCN)NC(=O)[C@@H](CC(C)C)NC(=O)[C@H](C)N(C)C1=O (stereo partly drawn) [Compound 2217] ({CH2CO}-[Lys(Me3)]YDWV[Bip][Ile(3ξ)][NMeA][dL][Dab][Cha]V[Thr(3ξ)][ξC]G-OH; thioether N-14) | 0.01
12 | CC(C)C[C@@H]1NC(=O)[C@H](CCCN)NC(=O)[C@@H](CC(C)C)NC(=O)[C@H](C)N(C)C(=O)[C@H](CCCNC(=N)N)NC(=O)[C@H](Cc2ccc(-c3ccccc3)cc2)NC(=O)[C@H](C(C)C)NC(=O)[C@H](Cc2c[nH]c3ccccc23)NC(=O)[C@H](CC(=O)O)NC(=O)[C@H](Cc2cnc[nH]2)NC(=O)[C@H](CC(N)=O)NC(=O)CSC[C@@H](C(=O)N[C@@H](C)C(N)=O)NC(=O)[C@H]([C@@H](C)O)NC(=O)[C@H](C(C)C)NC1=O [Compound 1131] ({CH2CO}-NHDWV[Bip]R[NMeA][dL][Orn]LVTCA-NH2; thioether N-14) | 0.28
13 | CCC(C)[C@@H]1NC(=O)[C@H](Cc2ccc(-c3ccccc3)cc2)NC(=O)[C@H](C(C)C)NC(=O)[C@H](Cc2c[nH]c3ccccc23)NC(=O)[C@H](CC(=O)O)NC(=O)[C@H](Cc2ccc(OCC(=O)O)cc2)NC(=O)[C@H](C(C)O)NC(=O)CSC[C@@H](C(=O)N[C@@H](CO)C(=O)O)NC(=O)[C@H](C(C)O)NC(=O)[C@H](C(C)C)NC(=O)[C@H](CC2CCCCC2)NC(=O)[C@H](CCN)NC(=O)[C@@H](CC(C)C)NC(=O)[C@H](C)N(C)C1=O (stereo partly drawn) [Compound 2230] ({CH2CO}-[Thr(3ξ)]Y(Carboxymethyl)DWV[Bip][Ile(3ξ)][NMeA][dL][Dab][Cha]V[Thr(3ξ)]CS-OH; thioether N-14) | 0.03
14 | CC(C)C[C@@H]1NC(=O)[C@H](CCCN)NC(=O)[C@@H](CC(C)C)NC(=O)[C@H](C)N(C)C(=O)[C@H](CCCNC(=N)N)NC(=O)[C@H](Cc2ccc(-c3ccccc3)cc2)NC(=O)[C@H](C(C)C)NC(=O)[C@H](Cc2c[nH]c3ccccc23)NC(=O)[C@H](CC(=O)O)NC(=O)[C@H](Cc2ccc(O)cc2)NC(=O)[C@H](CC(N)=O)NC(=O)CSC[C@@H](C(=O)N[C@@H](CCC(=O)O)C(N)=O)NC(=O)[C@H]([C@@H](C)O)NC(=O)[C@H](C(C)C)NC1=O [Compound 1165] ({CH2CO}-NYDWV[Bip]R[NMeA][dL][Orn]LVTCE-NH2; thioether N-14) | 0.15
15 | CC(C)C[C@@H]1NC(=O)[C@H](CCCNC(=N)N)NC(=O)[C@@H](c2ccccc2)NC(=O)[C@H](C)N(C)C(=O)[C@H](CCCNC(=N)N)NC(=O)[C@H](Cc2ccc(-c3ccccc3)cc2)NC(=O)[C@H](C(C)C)NC(=O)[C@H](Cc2c[nH]c3ccccc23)NC(=O)[C@H](CC(=O)O)NC(=O)[C@H](Cc2ccc(O)cc2)NC(=O)[C@H](Cc2ccccc2)NC(=O)CSC[C@@H](C(=O)N[C@@H](C)C(N)=O)NC(=O)[C@H]([C@@H](C)O)NC(=O)[C@H](C(C)C)NC1=O [Compound 1059] ({CH2CO}-FYDWV[Bip]R[NMeA][dPhg]RLVTCA-NH2; thioether N-14) | 0.21
